Test [1] concerns HCT-116. Nature of the test: MTT cell viability, HCT-116. The class given is cell-based. The note with it: Homo sapiens, colon cancer, 48 h of drug treatment, average of three experiments. The text has this: (§1) Cell culture: In this study five different cancer cell lines were used, human lung carcinoma (A549), human breast adenoma (MCF-7), Cervical carcinoma (Hela), hepatocellular carcinoma (Hep3B), and colorectal adenocarcinoma (HCT-116). These cells were obtained from the European Collection of Cell Cultures (ECACC, UK). Hep3B cells were maintained in Dulbecco's Modified Eagle Medium (DMEM: Sigma-Aldrich), and the four other cell lines were maintained in Roswell Park Memorial Institute medium (RPMI, Sigma-Aldrich, St. Louis, Mo., USA), which was supplemented with 10% fetal bovine serum (FBS, Sigma-Aldrich) and 1% penicillin/streptomycin (Sigma-Aldrich). Cells were incubated all the time at 37° C. in a humidified atmosphere of 5% CO2. Cell viability studies: Cell viability was assessed using the MTT assay as described before. In brief, all cancer cell lines were seeded at a density of 4×10^4/well in 96 well flat-bottom plates. After 24 h from seeding, cells were treated with the synthesized compounds and left for an incubation period of 48 h. Upon reaching the indicated time point, the media was removed and replaced with 200 μL fresh media containing 0.5 mg/mL of MTT tetrazolium dye (Sigma-Aldrich). Cells were then incubated with MTT solution for 2 h at 37° C. The resultant formazan crystals were dissolved in 200 μl/well of DMSO and absorbance was measured at 570 nm using a microplate reader (Thermo Scientific).

Test [2] concerns MRSA-ATCC33591. Nature of the test: MIC broth microdilution, MRSA ATCC33591. Type of test: cell-based, Staphylococcus aureus. Particulars: Staphylococcus aureus; overnight incubation, Mueller-Hinton broth; read-out: MIC MRSA-ATCC33591. How it is done:
(§2) Antibacterial activity: The compounds were tested for the minimum inhibitory concentrations (MIC), which is the lowest concentration of a chemical required to inhibit visible microbial growth following overnight incubation. MIC values were determined using broth microdilution method according to the Clinical and Laboratory Standards Institute guidelines (CLSI, 2015, M07-A10). Mueller-Hinton broth was used as a culture medium in all the experiments. Exponentially growing bacterial cells were prepared in Mueller-Hinton broth at a concentration of approximately 5×10^5 CFU/mL. Two-fold serial dilutions of the test compound (8 concentrations ranged between 100-0.78 μg/mL) were tested. […] In each experiment, solvent (DMSO) was used as a negative control, un-treated control (composing of bacteria in Mueller-Hinton broth) was used as a growth control, blank (culture media alone) was used as sterility control. The 96-well microplate with the test compounds was incubated overnight at 37° C. Turbidity in wells indicated bacterial growth.
(§3) The compounds were tested on six MDR Gram-positive bacteria including three clinical isolates of methicillin-resistant Staphylococcus aureus (MRSA-1, MRSA-2 and MRSA-3) and three reference MRSA strains (ATCC33591, ATCC33592 and ATCC700699). They were also tested on three MDR Gram-negative bacteria including New Delhi metallo-beta-lactamase (NDM-1) positive, carbapenem-resistant E. coli (ATCC BAA2469), extended-spectrum beta-lactamase (ESBL) producing, colistin-resistant E. coli (CDC-AR-0346) and carbapenem-resistant Acinetobacter baumannii (ATCC BAA1605), in addition to two non-MDR bacteria from the same species, namely E. coli (ATCC 25922) Acinetobacter baumannii (ATCC 19606).

Test [3] concerns MRSA-2 (clinical isolate). In words: MIC broth microdilution, MRSA-2. Type of test: cell-based, Staphylococcus aureus. The note with it: Staphylococcus aureus, MRSA; overnight incubation, Mueller-Hinton broth; read-out: MIC MRSA-2 (clinical isolate). How it is done:
as §2, §3

For test [4], the system named is Acinetobacter baumannii ATCC BAA1605 (carbapenem-resistant). Nature of the test: MIC broth microdilution, A. baumannii ATCC BAA1605. The class given is cell-based. Particulars: Acinetobacter baumannii, ATCCBAA1605, MDR; overnight incubation. As for the experimental part:
as §2, §3

Test [5] has as its system E. coli ATCC BAA2469 (NDM-1 carbapenem-resistant). In words: MIC broth microdilution, E. coli ATCC BAA2469. Type of test: cell-based, Escherichia coli. The note with it: overnight incubation. As for the experimental part: as §2, §3
Test [6] relates to MRSA-1 (clinical isolate). Nature of the test: MIC broth microdilution, MRSA-1. Type of test: cell-based, Staphylococcus aureus. Particulars: Staphylococcus aureus, MRSA; overnight incubation, Mueller-Hinton broth; read-out: MIC MRSA-1 (clinical isolate). How it is done: as §2, §3
In test [7] the test system is E. coli CDC-AR-0346 (ESBL, colistin resistant). In words: MIC broth microdilution, E. coli CDC-AR-0346. The class given is cell-based, Escherichia coli. The note with it: Escherichia coli; MDR; overnight incubation. How it is done:
as §2, §3

Test [8] has as its system A549. Nature of the test: MTT cell viability, A549. The class given is cell-based. Particulars: Homo sapiens, lung cancer, 48 h of drug treatment, average of three experiments.
Text: as §1

The test system of test [9] is normal epithelial cells (HMEC). Nature of the test: Cell viability, normal epithelial cells. Type of test: cell-based. Particulars: Homo sapiens, 48 h of drug treatment, average of three experiments. As for the experimental part:
Cell viability studies: Cell viability was assessed using the MTT assay as described before. In brief, all cancer cell lines were seeded at a density of 4×10^4/well in 96 well flat-bottom plates. After 24 h from seeding, cells were treated with the synthesized compounds and left for an incubation period of 48 h. Upon reaching the indicated time point, the media was removed and replaced with 200 μL fresh media containing 0.5 mg/mL of MTT tetrazolium dye (Sigma-Aldrich). Cells were then incubated with MTT solution for 2 h at 37° C. The resultant formazan crystals were dissolved in 200 μl/well of DMSO and absorbance was measured at 570 nm using a microplate reader (Thermo Scientific).

Test [10] has as its system MCF-7. In words: MTT cell viability, MCF-7. The class given is cell-based. Particulars: Homo sapiens, MCF7; breast cancer; 48 h of drug treatment; average of three experiments.
Text: as §1

Test [11] relates to HELA. Nature of the test: MTT cell viability, HELA. The class given is cell-based. The note with it: Homo sapiens, cervical cancer, 48 h of drug treatment, average of three experiments.
Text: as §1

Test [12] has as its system MRSA-ATCC33592. In words: MIC broth microdilution, MRSA ATCC33592. The note with it: Staphylococcus aureus; overnight incubation, Mueller-Hinton broth; read-out: MIC MRSA-ATCC33592. The class given is cell-based, Staphylococcus aureus. As for the experimental part: as §2, §3
For test [13], the system named is Acinetobacter baumannii ATCC 19606. Nature of the test: MIC broth microdilution, A. baumannii ATCC 19606. Type of test: cell-based. Particulars: Acinetobacter baumannii, ATCC19606; not MDR; overnight incubation. How it is done:
as §2, §3

Test [14] concerns E. coli ATCC25922. Nature of the test: MIC broth microdilution, E. coli ATCC25922. Particulars: Escherichia coli, ATCC25922; not MDR; overnight incubation. The class given is cell-based, Escherichia coli. How it is done: as §2, §3
Test [15] has as its system MRSA-3 (clinical isolate). In words: MIC broth microdilution, MRSA-3. Particulars: Staphylococcus aureus, MRSA; overnight incubation, Mueller-Hinton broth; read-out: MIC MRSA-3 (clinical isolate). Type of test: cell-based, Staphylococcus aureus. How it is done: as §2, §3
The test system of test [16] is MRSA-ATCC700699 (VISA). In words: MIC broth microdilution, MRSA ATCC700699 (VISA). Type of test: cell-based, Staphylococcus aureus. The note with it: Staphylococcus aureus; strain intermediately resistant to vancomycin; overnight incubation; read-out: MIC MRSA-ATCC700699 (VISA). As for the experimental part: as §2, §3
In test [17] the test system is HEP3B. Nature of the test: MTT cell viability, HEP3B. Type of test: cell-based. Particulars: Homo sapiens, liver cancer, 48 h of drug treatment, average of three experiments.
Text: as §1

The structures appear in SMILES notation. In brackets after ≈: the same amount, converted by molar mass.

Regarding `Oc1ccc2c(c1)c1c3n2[C@@]2(C=C/C(=N\Nc4ccc(C(F)(F)F)cc4)CC2)CC[C@@H]3NCC1` [Compound 1i], the IC50 in test [1] turned out to be 5.177 ± 0.02 µM; in [8] it was 8.607 ± 0.02 µM; in test [9], 12.7 ± 0.05 µM; in test [10], 5.61 ± 0.08 µM; in [11] it was 4.08 ± 0.12 µM; in test [17] it was 5.132 ± 0.04 µM. Also, the minimal inhibitory concentration (MIC) is 3.12 µg/mL (≈ 6.7 µM) in test [2]; 3.12 µg/mL (≈ 6.7 µM) in test [3]; 12.5 µg/mL (≈ 26.8 µM) in test [4]; 6.25 to 12.5 µg/mL (≈ 13.4 to 26.8 µM) in test [5] (Escherichia coli, ATCCBAA2469, MDR); 1.56 µg/mL (≈ 3.34 µM) in test [6]; 25 µg/mL (≈ 53.6 µM) in test [7]. Further, the MIC in test [12] came to 3.12 µg/mL (≈ 6.7 µM); in test [13], 6.25 µg/mL (≈ 13.4 µM); in test [14], 12.5 µg/mL (≈ 26.8 µM); in [15] it was 3.12 µg/mL (≈ 6.7 µM); in test [16], 1.56 µg/mL (≈ 3.34 µM). For the same molecule, in [5] (MDR), the “MIC E. coli ATCC BAA2469 (NDM-1 carbapenem-resistant)” value is 12.5 µg/mL (≈ 26.8 µM).

As to `COc1ccc2c3c4n(c2c1)[C@@]1(C=C/C(=N\Nc2ccc(C(F)(F)F)cc2)CC1)CC[C@@H]4NCC3` [Compound 1j], the IC50 in test [1] stood at 2.3 ± 0.04 µM; in [8], 5.61 ± 0.12 µM; in [9], 10.77 ± 0.05 µM; in test [10], 3 ± 2.4 µM; in test [11] it was 4.601 ± 0.03 µM; in [17], 2.88 ± 0.14 µM. For the same molecule, the MIC in [2] came out at 3.12 µg/mL (≈ 6.5 µM); in [3], 3.12 µg/mL (≈ 6.5 µM); in [6], 1.56 µg/mL (≈ 3.25 µM); in [12], 3.12 µg/mL (≈ 6.5 µM); in test [15], 3.12 µg/mL (≈ 6.5 µM); in test [16], 3.12 µg/mL (≈ 6.5 µM).

For the origin of these results see patent publication US11286258B2, “Nature-inspired anticancer and antibacterial motifs and pharmaceutical composition thereof” (University of Sharjah, priority 2020, dated 2022).
